Experimental data reported in ChEMBL document CHEMBL5678818, “Discovery of potent SOS1 inhibitors that block RAS activation via disruption of the RAS-SOS1 interaction” (Proc Natl Acad Sci U S A, 2019).

What was measured:
[1] = biological target: T1, Ephrin type-A receptor 1 (Homo sapiens) (UniProt P21709); experiment: Inhibition of EPHA1 (unknown origin) assessed as residual activity at 100 nM by KINOMEscan analysis relative to control
T1 sequence (whole entry): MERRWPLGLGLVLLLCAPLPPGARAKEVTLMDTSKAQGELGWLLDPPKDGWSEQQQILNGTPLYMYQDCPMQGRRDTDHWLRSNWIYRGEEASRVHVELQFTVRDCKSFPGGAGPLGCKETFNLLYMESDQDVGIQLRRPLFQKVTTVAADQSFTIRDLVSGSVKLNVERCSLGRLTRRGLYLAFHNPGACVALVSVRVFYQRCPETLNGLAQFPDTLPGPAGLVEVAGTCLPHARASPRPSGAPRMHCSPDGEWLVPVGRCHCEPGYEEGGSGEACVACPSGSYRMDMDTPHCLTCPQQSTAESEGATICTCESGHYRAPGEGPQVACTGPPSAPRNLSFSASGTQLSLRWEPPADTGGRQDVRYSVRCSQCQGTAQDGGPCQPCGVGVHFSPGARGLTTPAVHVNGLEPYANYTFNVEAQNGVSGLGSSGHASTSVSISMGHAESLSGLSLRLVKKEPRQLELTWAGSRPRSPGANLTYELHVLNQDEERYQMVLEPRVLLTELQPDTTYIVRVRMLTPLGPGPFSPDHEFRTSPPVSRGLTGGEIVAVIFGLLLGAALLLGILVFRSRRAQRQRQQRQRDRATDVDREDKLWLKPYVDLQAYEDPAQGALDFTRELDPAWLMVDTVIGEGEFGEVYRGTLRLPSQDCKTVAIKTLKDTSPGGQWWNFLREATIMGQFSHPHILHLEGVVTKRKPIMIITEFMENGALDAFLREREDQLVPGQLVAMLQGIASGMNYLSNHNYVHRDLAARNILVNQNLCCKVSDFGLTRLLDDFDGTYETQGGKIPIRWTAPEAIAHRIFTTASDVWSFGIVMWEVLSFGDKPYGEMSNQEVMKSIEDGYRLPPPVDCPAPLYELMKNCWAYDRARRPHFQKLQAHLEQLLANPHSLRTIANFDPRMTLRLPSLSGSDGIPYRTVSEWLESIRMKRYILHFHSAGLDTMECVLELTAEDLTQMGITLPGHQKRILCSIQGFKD

[2] = biological target: Tyrosine-protein kinase ABL2 (Homo sapiens) (UniProt P42684); experiment: Inhibition of ABL2 (unknown origin) assessed as residual activity at 100 nM by KINOMEscan analysis relative to control
[3] = biological target: Mitogen-activated protein kinase kinase kinase 20 (Homo sapiens) (UniProt Q9NYL2); experiment: Inhibition of ZAK (unknown origin) assessed as residual activity at 100 nM by KINOMEscan analysis relative to control
[4] = biological target: Casein kinase I isoform alpha (Homo sapiens) (UniProt P48729); experiment: Inhibition of CSNK1A1 (unknown origin) assessed as residual activity at 100 nM by KINOMEscan analysis relative to control
[5] = biological target: Protein kinase C eta type (Homo sapiens) (UniProt P24723); experiment: Inhibition of PRKCH (unknown origin) assessed as residual activity at 100 nM by KINOMEscan analysis relative to control
[6] = biological target: Casein kinase I isoform delta (Homo sapiens) (UniProt P48730); experiment: Inhibition of CSNK1D (unknown origin) assessed as residual activity at 100 nM by KINOMEscan analysis relative to control
[7] = biological target: Mitogen-activated protein kinase 6 (Homo sapiens) (UniProt Q16659); experiment: Inhibition of ERK3 (unknown origin) assessed as residual activity at 100 nM by KINOMEscan analysis relative to control
[8] = biological target: Serine/threonine-protein kinase Chk2 (Homo sapiens) (UniProt O96017); experiment: Inhibition of CHEK2 (unknown origin) assessed as residual activity at 100 nM by KINOMEscan analysis relative to control
[9] = biological target: Serine/threonine-protein kinase N1 (Homo sapiens) (UniProt Q16512); experiment: Inhibition of PKN1 (unknown origin) assessed as residual activity at 100 nM by KINOMEscan analysis relative to control
[10] = biological target: T2, Serine/threonine-protein kinase DCLK3 (Homo sapiens) (UniProt Q9C098); experiment: Inhibition of DCAMKL3 (unknown origin) assessed as residual activity at 100 nM by KINOMEscan analysis relative to control
T2 sequence (whole entry): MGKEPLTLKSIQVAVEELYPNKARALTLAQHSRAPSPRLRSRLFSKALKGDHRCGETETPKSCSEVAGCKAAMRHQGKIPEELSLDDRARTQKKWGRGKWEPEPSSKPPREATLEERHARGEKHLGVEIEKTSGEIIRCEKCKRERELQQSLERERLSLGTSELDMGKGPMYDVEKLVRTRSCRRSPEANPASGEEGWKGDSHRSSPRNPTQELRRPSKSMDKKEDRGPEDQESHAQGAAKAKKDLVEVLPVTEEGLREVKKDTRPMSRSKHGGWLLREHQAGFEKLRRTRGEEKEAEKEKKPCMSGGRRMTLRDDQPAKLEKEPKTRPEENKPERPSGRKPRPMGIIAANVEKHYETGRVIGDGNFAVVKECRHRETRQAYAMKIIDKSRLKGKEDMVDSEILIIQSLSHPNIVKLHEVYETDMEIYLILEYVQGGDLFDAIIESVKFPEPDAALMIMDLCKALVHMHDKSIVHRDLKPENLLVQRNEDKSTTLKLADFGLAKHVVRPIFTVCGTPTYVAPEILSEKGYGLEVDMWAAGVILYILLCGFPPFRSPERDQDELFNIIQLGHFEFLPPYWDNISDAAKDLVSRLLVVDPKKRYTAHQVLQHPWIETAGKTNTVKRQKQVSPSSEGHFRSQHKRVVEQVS

[11] = biological target: 5'-AMP-activated protein kinase catalytic subunit alpha-2 (Homo sapiens) (UniProt P54646); experiment: Inhibition of AMPK-alpha2 (unknown origin) assessed as residual activity at 100 nM by KINOMEscan analysis relative to control
[12] = biological target: Vascular endothelial growth factor receptor 2 (Homo sapiens) (UniProt P35968); experiment: Inhibition of VEGFR2 (unknown origin) assessed as residual activity at 100 nM by KINOMEscan analysis relative to control
[13] = biological target: Serine/threonine-protein kinase VRK2 (Homo sapiens) (UniProt Q86Y07); experiment: Inhibition of VRK2 (unknown origin) assessed as residual activity at 100 nM by KINOMEscan analysis relative to control
[14] = system: Tyrosine-protein kinase ABL1 (Homo sapiens), P00519 [F317I]; experiment: Inhibition of phosphorylated ABL1 F317I mutant (unknown origin) assessed as residual activity at 100 nM by KINOMEscan analysis relative to control
[15] = biological target: Calcium/calmodulin-dependent protein kinase kinase 2 (Homo sapiens) (UniProt Q96RR4); experiment: Inhibition of CAMKK2 (unknown origin) assessed as residual activity at 100 nM by KINOMEscan analysis relative to control
[16] = biological target: Mitotic checkpoint serine/threonine-protein kinase BUB1 (Homo sapiens) (UniProt O43683); experiment: Inhibition of BUB1 (unknown origin) assessed as residual activity at 100 nM by KINOMEscan analysis relative to control
Sequence of Mitotic checkpoint serine/threonine-protein kinase BUB1 (Homo sapiens) (O43683 whole entry, looked up): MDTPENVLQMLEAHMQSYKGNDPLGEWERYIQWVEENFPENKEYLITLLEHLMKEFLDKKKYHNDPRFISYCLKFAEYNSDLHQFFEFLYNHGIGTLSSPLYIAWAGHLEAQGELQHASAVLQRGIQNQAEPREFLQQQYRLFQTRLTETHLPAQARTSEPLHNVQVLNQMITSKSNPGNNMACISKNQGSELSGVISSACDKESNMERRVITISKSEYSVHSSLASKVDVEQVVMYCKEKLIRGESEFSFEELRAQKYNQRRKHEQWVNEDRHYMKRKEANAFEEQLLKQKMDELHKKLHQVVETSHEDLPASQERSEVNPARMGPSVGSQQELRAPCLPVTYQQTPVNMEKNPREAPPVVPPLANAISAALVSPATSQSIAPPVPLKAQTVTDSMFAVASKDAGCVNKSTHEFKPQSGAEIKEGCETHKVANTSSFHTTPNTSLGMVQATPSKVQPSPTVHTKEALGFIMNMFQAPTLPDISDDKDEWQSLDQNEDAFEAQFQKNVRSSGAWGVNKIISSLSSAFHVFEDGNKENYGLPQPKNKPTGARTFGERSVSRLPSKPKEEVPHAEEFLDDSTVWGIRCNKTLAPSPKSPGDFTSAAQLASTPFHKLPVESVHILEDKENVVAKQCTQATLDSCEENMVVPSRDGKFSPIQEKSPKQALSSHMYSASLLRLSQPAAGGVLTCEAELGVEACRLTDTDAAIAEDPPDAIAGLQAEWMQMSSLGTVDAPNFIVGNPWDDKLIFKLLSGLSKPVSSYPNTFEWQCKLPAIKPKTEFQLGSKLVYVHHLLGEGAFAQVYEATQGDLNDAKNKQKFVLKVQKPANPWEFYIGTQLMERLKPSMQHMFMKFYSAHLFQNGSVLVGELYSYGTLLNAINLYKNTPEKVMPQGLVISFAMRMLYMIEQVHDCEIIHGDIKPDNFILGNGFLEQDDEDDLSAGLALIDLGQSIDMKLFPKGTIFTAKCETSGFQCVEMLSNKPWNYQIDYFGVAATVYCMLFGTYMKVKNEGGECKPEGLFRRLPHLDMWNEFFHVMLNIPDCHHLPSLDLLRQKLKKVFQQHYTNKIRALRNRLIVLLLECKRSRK

Sequence of 5'-AMP-activated protein kinase catalytic subunit alpha-2 (Homo sapiens) (P54646 whole entry, looked up): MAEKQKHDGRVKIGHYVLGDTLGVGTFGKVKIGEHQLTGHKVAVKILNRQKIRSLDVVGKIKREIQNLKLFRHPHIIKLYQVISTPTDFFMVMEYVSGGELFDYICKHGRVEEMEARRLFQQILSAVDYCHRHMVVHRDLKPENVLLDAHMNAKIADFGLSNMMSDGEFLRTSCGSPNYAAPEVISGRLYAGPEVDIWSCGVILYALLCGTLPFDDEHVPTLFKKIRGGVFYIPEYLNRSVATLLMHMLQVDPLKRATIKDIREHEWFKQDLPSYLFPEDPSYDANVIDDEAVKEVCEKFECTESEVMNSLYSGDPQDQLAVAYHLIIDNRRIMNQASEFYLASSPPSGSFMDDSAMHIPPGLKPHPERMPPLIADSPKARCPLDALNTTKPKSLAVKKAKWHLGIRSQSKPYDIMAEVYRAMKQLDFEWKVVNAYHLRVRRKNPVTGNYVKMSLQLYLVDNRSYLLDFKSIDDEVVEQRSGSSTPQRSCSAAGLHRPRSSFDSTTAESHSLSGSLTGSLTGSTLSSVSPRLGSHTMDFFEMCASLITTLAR
Sequence of Tyrosine-protein kinase ABL2 (Homo sapiens) (P42684 whole entry): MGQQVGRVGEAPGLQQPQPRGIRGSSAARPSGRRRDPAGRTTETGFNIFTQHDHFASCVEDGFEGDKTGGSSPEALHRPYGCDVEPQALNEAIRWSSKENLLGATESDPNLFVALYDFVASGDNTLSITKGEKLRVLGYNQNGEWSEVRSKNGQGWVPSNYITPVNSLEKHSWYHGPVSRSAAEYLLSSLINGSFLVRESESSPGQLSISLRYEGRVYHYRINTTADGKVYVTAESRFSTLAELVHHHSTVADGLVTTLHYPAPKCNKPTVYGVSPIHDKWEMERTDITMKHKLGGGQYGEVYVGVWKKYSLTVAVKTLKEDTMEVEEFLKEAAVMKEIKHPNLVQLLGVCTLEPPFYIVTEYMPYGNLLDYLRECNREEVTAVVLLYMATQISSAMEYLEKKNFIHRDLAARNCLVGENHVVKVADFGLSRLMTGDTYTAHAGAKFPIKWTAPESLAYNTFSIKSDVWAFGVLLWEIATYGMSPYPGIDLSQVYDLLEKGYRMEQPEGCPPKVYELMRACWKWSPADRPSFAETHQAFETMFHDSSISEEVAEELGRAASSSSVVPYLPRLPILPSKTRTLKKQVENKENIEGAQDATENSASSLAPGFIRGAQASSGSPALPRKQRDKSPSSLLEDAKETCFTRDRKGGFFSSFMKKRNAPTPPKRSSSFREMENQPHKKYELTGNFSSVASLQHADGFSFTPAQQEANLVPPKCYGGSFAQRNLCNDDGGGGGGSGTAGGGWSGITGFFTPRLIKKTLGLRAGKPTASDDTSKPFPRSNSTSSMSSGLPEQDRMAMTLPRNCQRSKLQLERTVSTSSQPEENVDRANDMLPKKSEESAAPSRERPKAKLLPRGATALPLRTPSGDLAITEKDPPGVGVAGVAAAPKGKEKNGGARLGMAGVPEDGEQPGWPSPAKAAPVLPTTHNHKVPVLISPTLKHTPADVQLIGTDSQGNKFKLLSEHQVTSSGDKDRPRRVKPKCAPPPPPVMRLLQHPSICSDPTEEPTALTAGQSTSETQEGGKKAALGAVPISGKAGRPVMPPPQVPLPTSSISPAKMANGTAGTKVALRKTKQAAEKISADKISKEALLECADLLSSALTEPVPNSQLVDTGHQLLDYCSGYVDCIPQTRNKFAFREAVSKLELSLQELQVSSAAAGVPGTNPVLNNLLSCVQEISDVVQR
Sequence of Serine/threonine-protein kinase Chk2 (Homo sapiens) (O96017 whole entry): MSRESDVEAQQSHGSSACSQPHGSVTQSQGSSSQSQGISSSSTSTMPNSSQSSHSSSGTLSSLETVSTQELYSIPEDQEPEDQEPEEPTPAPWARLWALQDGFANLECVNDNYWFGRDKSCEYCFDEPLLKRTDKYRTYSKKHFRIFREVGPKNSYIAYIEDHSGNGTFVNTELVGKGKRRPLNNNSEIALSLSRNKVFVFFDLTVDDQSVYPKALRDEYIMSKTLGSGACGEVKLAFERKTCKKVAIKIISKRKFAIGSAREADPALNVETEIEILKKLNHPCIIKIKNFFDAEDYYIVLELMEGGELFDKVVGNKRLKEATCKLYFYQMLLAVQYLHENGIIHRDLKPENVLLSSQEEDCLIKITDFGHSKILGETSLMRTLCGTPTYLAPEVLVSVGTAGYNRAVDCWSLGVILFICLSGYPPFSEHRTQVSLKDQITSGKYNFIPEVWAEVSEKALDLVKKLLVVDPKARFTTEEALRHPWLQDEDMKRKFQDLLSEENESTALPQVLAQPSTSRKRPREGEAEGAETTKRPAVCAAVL
Sequence of Serine/threonine-protein kinase VRK2 (Homo sapiens) (Q86Y07 whole entry): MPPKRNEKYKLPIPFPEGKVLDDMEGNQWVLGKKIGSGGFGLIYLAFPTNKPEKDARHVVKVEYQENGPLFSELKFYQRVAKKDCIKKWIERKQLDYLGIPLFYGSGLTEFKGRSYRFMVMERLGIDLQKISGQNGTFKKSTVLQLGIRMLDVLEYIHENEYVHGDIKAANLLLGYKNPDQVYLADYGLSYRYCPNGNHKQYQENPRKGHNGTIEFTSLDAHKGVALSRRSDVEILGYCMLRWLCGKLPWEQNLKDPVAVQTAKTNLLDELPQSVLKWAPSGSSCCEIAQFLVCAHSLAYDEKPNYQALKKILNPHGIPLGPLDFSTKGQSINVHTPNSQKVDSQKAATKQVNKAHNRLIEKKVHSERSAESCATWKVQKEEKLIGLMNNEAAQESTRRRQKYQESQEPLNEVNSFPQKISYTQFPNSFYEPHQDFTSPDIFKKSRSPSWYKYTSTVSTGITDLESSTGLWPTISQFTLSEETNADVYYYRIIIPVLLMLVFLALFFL
Sequence of Serine/threonine-protein kinase N1 (Homo sapiens) (Q16512 2-942 limits assumed): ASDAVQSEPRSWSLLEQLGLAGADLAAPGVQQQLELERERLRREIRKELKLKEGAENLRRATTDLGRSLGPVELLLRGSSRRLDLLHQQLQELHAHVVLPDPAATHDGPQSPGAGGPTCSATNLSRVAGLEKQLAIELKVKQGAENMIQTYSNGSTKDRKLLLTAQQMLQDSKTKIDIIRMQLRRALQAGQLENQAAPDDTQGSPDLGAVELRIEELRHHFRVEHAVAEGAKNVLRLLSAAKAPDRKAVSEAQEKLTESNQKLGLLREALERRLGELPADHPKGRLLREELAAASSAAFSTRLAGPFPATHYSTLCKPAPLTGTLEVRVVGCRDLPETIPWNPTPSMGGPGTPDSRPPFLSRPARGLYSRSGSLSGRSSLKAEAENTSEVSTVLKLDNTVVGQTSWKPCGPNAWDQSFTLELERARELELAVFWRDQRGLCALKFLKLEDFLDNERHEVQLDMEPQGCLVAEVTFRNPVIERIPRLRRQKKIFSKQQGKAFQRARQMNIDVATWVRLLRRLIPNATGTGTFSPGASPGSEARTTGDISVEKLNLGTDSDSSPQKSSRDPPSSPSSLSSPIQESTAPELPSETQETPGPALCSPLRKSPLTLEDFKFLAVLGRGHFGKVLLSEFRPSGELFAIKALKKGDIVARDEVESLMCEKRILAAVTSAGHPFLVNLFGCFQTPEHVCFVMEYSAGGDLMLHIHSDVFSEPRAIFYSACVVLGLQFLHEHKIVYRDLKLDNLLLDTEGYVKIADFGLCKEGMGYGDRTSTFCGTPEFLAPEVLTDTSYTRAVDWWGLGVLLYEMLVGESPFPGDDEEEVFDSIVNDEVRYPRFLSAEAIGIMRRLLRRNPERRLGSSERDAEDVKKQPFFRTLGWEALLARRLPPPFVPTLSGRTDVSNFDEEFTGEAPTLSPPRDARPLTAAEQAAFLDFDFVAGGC

SMILES: COc1cc2ncnc(N[C@H](C)c3cccc4ccccc34)c2cc1OC
- Activity [1]: 75%
- Activity [2]: 81%
- Activity [3]: 51%
- Activity [4]: 93%
- Activity [5]: 90%
- Activity [6]: 97%
- Activity [7]: 40%
- Activity [8]: 100%
- Activity [9]: 92%
- Activity [10]: 84%
- Activity [11]: 52%
- Activity [12]: 75%
- Activity [13]: 72%
- Activity [14]: 91%
- Activity [15]: 60%
- Activity [16]: 100%
